Reference: PubChem BioAssay AID1963826 (Molecular Pharmacology Branch, DTP, NCI, 2024)

System: 926638-142-R-J1-PDC complex spheroid viability
Experiment: Anticancer human tumor 926638-142-R-J1-PDC patient-derived endometrial carcinoma cell line growth inhibition [POLQ]
Conditions: for IC50: curve of first compound; for viability, T/C: stronger effect = lower value
Summary of the method: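 PDC + HUVEC + MSC complex spheroids; POLQ inhibitors ± partner drugs; top conc. at/near clinical Cmax, else 10 microM (SN-38 1 microM), half-log dilutions; 37 degrees C, 5% CO2.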

[1] = second compound 0.0316 µM, first compound 0.00316 µM
[2] = second compound 0.0316 µM, first compound 0.01 µM
[3] = second compound 0.0316 µM, first compound 0.0316 µM
[4] = second compound 0.0316 µM, first compound 0.1 µM
[5] = second compound 0.1 µM, first compound 0.00316 µM
[6] = second compound 0.1 µM, first compound 0.01 µM
[7] = second compound 0.1 µM, first compound 0.0316 µM
[8] = second compound 0.1 µM, first compound 0.1 µM
[9] = second compound 0.316 µM, first compound 0.00316 µM
[10] = second compound 0.316 µM, first compound 0.01 µM
[11] = second compound 0.316 µM, first compound 0.0316 µM
[12] = second compound 0.316 µM, first compound 0.1 µM
[13] = second compound 1 µM, first compound 0.00316 µM
[14] = second compound 1 µM, first compound 0.01 µM
[15] = second compound 1 µM, first compound 0.0316 µM
[16] = second compound 1 µM, first compound 0.1 µM
[17] = second compound 3.16 µM, first compound 0.00316 µM
[18] = second compound 3.16 µM, first compound 0.01 µM
[19] = second compound 3.16 µM, first compound 0.0316 µM
[20] = second compound 3.16 µM, first compound 0.1 µM
[21] = second compound 10 µM, first compound 0.00316 µM
[22] = second compound 10 µM, first compound 0.01 µM
[23] = second compound 10 µM, first compound 0.0316 µM
[24] = second compound 10 µM, first compound 0.1 µM
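Also: spheroids exposed to drugs for one week before readout.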
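For viability, T/C in this document: percent viability relative to DMSO vehicle control wells set as 100%.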

## COc1cccc(OCCCN)c1-c1cc(Nc2cnc(C#N)cn2)n[nH]1 + Cc1cccc(N(C)C(=O)C2C(O)CCN2c2nc(C)cc(C(F)(F)F)c2C#N)c1
Second compound 0.0316 µM
  IC50: 56.8 nM
Second compound 0.1 µM
  IC50: 59.4 nM
Second compound 0.316 µM
  IC50: 47.7 nM
Second compound 1 µM
  IC50: 50.4 nM
Second compound 3.16 µM
  IC50: 108 nM
Second compound 10 µM
  IC50: 29 nM
[1]
  viability, T/C: 99.5%
[2]
  viability, T/C: 72.9%
[3]
  viability, T/C: 51.1%
[4]
  viability, T/C: 49.4%
Second compound 0.0316 µM, first compound 0.316 µM
  viability, T/C: 39.5%
Second compound 0.0316 µM, first compound 1 µM
  viability, T/C: 36%
[5]
  viability, T/C: 102%
[6]
  viability, T/C: 81.8%
[7]
  viability, T/C: 54.2%
[8]
  viability, T/C: 47.2%
Second compound 0.1 µM, first compound 0.316 µM
  viability, T/C: 46.1%
Second compound 0.1 µM, first compound 1 µM
  viability, T/C: 37.8%
[9]
  viability, T/C: 99.3%
[10]
  viability, T/C: 61.6%
[11]
  viability, T/C: 59.7%
[12]
  viability, T/C: 43.6%
Second compound 0.316 µM, first compound 0.316 µM
  viability, T/C: 44.1%
Second compound 0.316 µM, first compound 1 µM
  viability, T/C: 30.4%
[13]
  viability, T/C: 96.6%
[14]
  viability, T/C: 79.2%
[15]
  viability, T/C: 53.5%
[16]
  viability, T/C: 43.3%
Second compound 1 µM, first compound 0.316 µM
  viability, T/C: 49.2%
Second compound 1 µM, first compound 1 µM
  viability, T/C: 34.3%
[17]
  viability, T/C: 89.4%
[18]
  viability, T/C: 65.9%
[19]
  viability, T/C: 62.1%
[20]
  viability, T/C: 49.2%
Second compound 3.16 µM, first compound 0.316 µM
  viability, T/C: 47.5%
Second compound 3.16 µM, first compound 1 µM
  viability, T/C: 33.7%
[21]
  viability, T/C: 83.5%
[22]
  viability, T/C: 80.9%
[23]
  viability, T/C: 47%
[24]
  viability, T/C: 40.2%
Second compound 10 µM, first compound 0.316 µM
  viability, T/C: 38.6%
Second compound 10 µM, first compound 1 µM
  viability, T/C: 27.3%

## Cn1ncnc1[C@H]1c2n[nH]c(=O)c3cc(F)cc(c23)N[C@@H]1c1ccc(F)cc1 + Cc1cccc(N(C)C(=O)C2C(O)CCN2c2nc(C)cc(C(F)(F)F)c2C#N)c1
Second compound 0.0316 µM
  IC50: > 100 nM
Second compound 0.1 µM
  IC50: > 100 nM
Second compound 0.316 µM
  IC50: > 100 nM
Second compound 1 µM
  IC50: > 100 nM
Second compound 3.16 µM
  IC50: > 100 nM
Second compound 10 µM
  IC50: > 100 nM
Second compound 0.0316 µM, first compound 0.000316 µM
  viability, T/C: 100%
Second compound 0.0316 µM, first compound 0.001 µM
  viability, T/C: 83.6%
[1]
  viability, T/C: 86.1%
[2]
  viability, T/C: 84.9%
[3]
  viability, T/C: 81.5%
[4]
  viability, T/C: 73.8%
Second compound 0.1 µM, first compound 0.000316 µM
  viability, T/C: 91.2%
Second compound 0.1 µM, first compound 0.001 µM
  viability, T/C: 82.4%
[5]
  viability, T/C: 83.6%
[6]
  viability, T/C: 82.5%
[7]
  viability, T/C: 73.7%
[8]
  viability, T/C: 78.8%
Second compound 0.316 µM, first compound 0.000316 µM
  viability, T/C: 86.9%
Second compound 0.316 µM, first compound 0.001 µM
  viability, T/C: 81.2%
[9]
  viability, T/C: 92.9%
[10]
  viability, T/C: 73.4%
[11]
  viability, T/C: 64.9%
[12]
  viability, T/C: 65.3%
Second compound 1 µM, first compound 0.000316 µM
  viability, T/C: 103%
Second compound 1 µM, first compound 0.001 µM
  viability, T/C: 101%
[13]
  viability, T/C: 70.3%
[14]
  viability, T/C: 77.2%
[15]
  viability, T/C: 85.1%
[16]
  viability, T/C: 68.1%
Second compound 3.16 µM, first compound 0.000316 µM
  viability, T/C: 73.5%
Second compound 3.16 µM, first compound 0.001 µM
  viability, T/C: 97.5%
[17]
  viability, T/C: 91%
[18]
  viability, T/C: 67.5%
[19]
  viability, T/C: 74.1%
[20]
  viability, T/C: 76.8%
Second compound 10 µM, first compound 0.000316 µM
  viability, T/C: 87.9%
Second compound 10 µM, first compound 0.001 µM
  viability, T/C: 84.2%
[21]
  viability, T/C: 77.3%
[22]
  viability, T/C: 80%
[23]
  viability, T/C: 72.7%
[24]
  viability, T/C: 75.7%
